Assay results from ChEMBL document CHEMBL1201862, “PubChem BioAssay data set” (2004).
Active and inactive are the calls of the source. No stated cut-off is given here; in the data, actives have a measured IC50 and inactives only a lower limit.

Experiments:
Format in all cases: functional
[1] = target: T1, Sentrin-specific protease 8 (Homo sapiens, UniProt Q96LD8); test: inhibition of human SENP8 cleavage activity – biochemical, luminescence, SAR follow-up (AID 504501)
T1 sequence (Q96LD8 whole entry): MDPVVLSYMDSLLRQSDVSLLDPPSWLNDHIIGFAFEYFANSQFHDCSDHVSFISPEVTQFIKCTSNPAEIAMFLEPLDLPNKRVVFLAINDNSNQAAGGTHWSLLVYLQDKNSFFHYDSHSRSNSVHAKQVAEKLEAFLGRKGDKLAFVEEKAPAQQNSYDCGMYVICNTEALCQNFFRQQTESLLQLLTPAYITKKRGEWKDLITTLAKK

[2] = target: T2, Sentrin-specific protease 6 (Homo sapiens, UniProt Q9GZR1); test: SAR Analysis of small molecule inhibitors of Sentrin-specific protease 6 (SENP6) using a Luminescent assay. [Related pubchem assays (depositor defined):AID2582, AID2599]
T2 sequence (Q9GZR1 whole entry): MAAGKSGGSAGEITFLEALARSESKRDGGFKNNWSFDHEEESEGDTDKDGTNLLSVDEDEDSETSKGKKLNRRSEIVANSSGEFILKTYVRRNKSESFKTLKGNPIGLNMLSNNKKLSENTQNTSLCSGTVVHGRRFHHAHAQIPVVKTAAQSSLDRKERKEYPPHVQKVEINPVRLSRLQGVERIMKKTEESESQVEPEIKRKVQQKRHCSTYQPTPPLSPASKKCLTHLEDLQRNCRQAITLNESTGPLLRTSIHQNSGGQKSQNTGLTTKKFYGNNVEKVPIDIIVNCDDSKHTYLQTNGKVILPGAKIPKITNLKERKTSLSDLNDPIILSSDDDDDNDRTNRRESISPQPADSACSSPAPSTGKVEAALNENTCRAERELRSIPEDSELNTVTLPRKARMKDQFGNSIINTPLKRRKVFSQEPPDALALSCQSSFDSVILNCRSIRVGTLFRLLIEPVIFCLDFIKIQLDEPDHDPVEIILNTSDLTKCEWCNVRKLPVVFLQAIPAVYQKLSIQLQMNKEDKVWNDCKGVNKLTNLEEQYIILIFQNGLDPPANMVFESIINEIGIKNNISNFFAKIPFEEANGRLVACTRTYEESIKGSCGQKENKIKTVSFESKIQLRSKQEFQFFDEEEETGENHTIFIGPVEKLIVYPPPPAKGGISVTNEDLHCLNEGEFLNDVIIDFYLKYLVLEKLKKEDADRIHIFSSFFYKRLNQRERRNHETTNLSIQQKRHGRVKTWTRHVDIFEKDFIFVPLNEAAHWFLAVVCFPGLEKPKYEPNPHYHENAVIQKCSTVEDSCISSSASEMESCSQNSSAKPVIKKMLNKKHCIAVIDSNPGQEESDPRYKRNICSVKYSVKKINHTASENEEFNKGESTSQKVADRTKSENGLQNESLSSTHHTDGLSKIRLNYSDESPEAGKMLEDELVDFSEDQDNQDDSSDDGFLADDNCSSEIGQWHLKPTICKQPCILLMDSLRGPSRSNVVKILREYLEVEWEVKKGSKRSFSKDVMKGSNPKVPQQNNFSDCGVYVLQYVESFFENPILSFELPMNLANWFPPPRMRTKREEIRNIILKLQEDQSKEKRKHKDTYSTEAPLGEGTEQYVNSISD

[3] = target: T3, Caspase-3 (Homo sapiens, UniProt P42574); test: SAR Analysis of small molecule inhibitors of Sentrin-specific proteases (SENPs) using a Caspase-3 Selectivity assay. [Related pubchem assays (depositor defined):AID2540, AID2599, AID434973, AID489001]
T3 sequence (P42574 whole entry): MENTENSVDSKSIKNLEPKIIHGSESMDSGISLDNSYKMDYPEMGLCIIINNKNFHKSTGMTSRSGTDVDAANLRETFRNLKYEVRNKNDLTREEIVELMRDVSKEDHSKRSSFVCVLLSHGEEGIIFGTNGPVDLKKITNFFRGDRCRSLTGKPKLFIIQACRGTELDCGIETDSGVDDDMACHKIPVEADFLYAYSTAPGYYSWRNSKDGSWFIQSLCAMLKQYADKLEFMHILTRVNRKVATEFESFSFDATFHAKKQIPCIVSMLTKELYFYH

[4] = target: T4, Sentrin-specific protease 7 (Homo sapiens, UniProt Q9BQF6); test: inhibition of human SENP7 cleavage activity – biochemical, luminescence, SAR follow-up (AID 504497)
T4 sequence (Q9BQF6 whole entry): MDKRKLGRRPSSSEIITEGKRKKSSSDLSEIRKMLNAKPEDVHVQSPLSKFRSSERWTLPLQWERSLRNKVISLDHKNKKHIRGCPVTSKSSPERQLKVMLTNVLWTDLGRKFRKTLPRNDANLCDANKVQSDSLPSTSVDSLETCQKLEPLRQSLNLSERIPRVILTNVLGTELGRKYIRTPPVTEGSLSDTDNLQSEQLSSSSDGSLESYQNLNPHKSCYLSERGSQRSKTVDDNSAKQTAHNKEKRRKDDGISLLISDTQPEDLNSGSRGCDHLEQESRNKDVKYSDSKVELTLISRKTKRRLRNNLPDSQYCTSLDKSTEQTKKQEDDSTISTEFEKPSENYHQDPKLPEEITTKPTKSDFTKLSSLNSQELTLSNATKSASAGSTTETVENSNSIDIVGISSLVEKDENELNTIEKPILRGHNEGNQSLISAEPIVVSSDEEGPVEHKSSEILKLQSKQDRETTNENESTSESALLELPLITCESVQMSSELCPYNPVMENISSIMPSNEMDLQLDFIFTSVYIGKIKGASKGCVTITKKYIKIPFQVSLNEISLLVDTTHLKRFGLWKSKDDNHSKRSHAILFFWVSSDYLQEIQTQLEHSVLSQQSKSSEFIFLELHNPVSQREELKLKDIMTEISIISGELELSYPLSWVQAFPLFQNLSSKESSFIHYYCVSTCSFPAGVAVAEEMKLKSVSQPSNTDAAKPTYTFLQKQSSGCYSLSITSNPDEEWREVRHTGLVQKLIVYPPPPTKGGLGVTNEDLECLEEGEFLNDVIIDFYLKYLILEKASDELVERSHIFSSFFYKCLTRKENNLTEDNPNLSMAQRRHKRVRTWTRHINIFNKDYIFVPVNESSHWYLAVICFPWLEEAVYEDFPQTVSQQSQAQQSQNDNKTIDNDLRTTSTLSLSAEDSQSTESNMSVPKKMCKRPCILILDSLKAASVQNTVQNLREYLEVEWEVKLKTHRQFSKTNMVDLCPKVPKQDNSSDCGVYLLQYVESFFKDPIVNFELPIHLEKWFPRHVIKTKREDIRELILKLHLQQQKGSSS

Measured: IC50

Cc1nn(CC(=O)Nc2sc3c(c2C#N)CCCC3)c(C)c1I
inactive: [1] > 99 µM | [2] > 99 µM | [3] > 99 µM | [4] > 99 µM

CN(C)CCN(C(=O)c1ccc(S(=O)(=O)N2CCCCCC2)cc1)c1nc2cc3c(cc2s1)OCCO3
inactive: [1] > 99 µM | [2] > 99 µM | [3] > 99 µM | [4] > 99 µM
